Values of other authors in patent US20250041246A1, “METHODS AND COMPOSITIONS FOR TREATING VITILIGO” (THE REGENTS OF THE UNIVERSITY OF CALIFORNIA, priority 2021, published 2025).

Experiments:
[1] = test system: hyperpigmentary disorders; conditions: in hyperpigmentary disorders
[2] = test system: existing melanosomes (in melanocytes); conditions: due to its effect on existing melanosomes (in melanocytes)

Compound	effect on skin pigmentation [1]	effect on skin pigmentation [2]
CN(C)C(=N)N=C(N)N [metformin]	lighten skin	–
[H]/N=C(/N)N/C(=N/[H])NCCc1ccccc1 [phenformin]	–	skin darkening effect
